Assay results as given in US20210010086A1, “MNK BIOMARKERS AND USES THEREOF” (eFFECTOR Therapeutics, Inc., priority 2015, published 2021).

Assays:
TMD8 cells [1] = assay: Ribosome profiling (translational rate RPF, translational efficiency, mRNA); assay type: cell-based, human; conditions: for # Genes Down Regulated / # Genes Up Regulated: 10 μM
Procedure: (§1) TMD8 human diffuse large B-cell lymphoma line was cultured in RPMI media supplemented with penicillin G (100 U/ml), streptomycin (100 μg/ml), 10% FBS in a humidified atmosphere of 5% CO2 maintained at 37° C. • (b) Drug Treatment
(§2) TMD8 cells were seeded prior to drug treatment. The following day, cells were treated with either DMSO (vehicle control) or MNK inhibitor (Compound 107) at the appropriate dose and time. • (c) Immunoblotting
Ribosomal profiling allows for measurement of changes in transcription and translation on a genome-wide basis accompanying inhibition of MNK with Compound 107 treatment of human DLBCL cells. Ribosome profiles of the Compound 107 treated TMD8 cells (about 3×10^6 cells/10 cm plate were harvested for ribosome profiling following drug treatment) were prepared and analyzed for changes in translational efficiencies with respect to potential disease-associated cellular changes accompanying MNK inhibition.
Briefly, cells were washed with cold PBS supplemented with cycloheximide and lysed with 1× mammalian cell lysis buffer for 10 minutes on ice. Lysates were clarified by centrifugation for 10 minutes at 14,000 rpm and supernatants were collected. Cell lysates were processed to generate ribosomal protected fragments and total mRNA according to the instructions included with the ARTSEQ Ribosome Profiling Kit (Illumina). Sequencing of total RNA (RNA) and of ribosome-protected fragments of RNA (RPF) was carried out using RNA-Seq methodology according to the manufacturer's instructions (Illumina). To analyze the ribosomal profiles, RNA-Seq reads were processed with tools from the FASTX-Toolkit (fastq quality trimmer, fastx clipper and fastx trimmer). Unprocessed and processed reads were evaluated for a variety of quality measures using FastQC. Processed reads were mapped to the human genome using Tophat. Gene-by-gene assessment of the number of fragments strictly and uniquely mapping to the coding region of each gene was conducted using HTSeq-count, a component of the HTSeq package. Differential analyses of Compound 107 treatment of TMD8 cells were carried out with the software packages DESeq for transcription (RNA counts) and translational rate (RPF counts) and BABEL (Olshen 2013) for translational efficiency based upon ribosomal occupancy (RPF counts) as a function of RNA level (RNA counts). The Log2 fold change in translational efficiency (TE) between drug treated and control is determined from the Log2 fold change difference in RPF and RNA values (drug treated versus to control).
Genes with low counts in either RPF or RNA were excluded from differential analyses. Biological process classification was done using Gene Ontology term analysis.
TMD8 cells were treated with DMSO or Compound 107 (0.3 or 10 μM) and cell lysates from two biological replicates were collected after 3 or 48 hours after treatment. The cell lysates were divided into two fractions and processed to quantitate the drug effects on the total mRNA (transcriptome) or RNase digested to generate the ribosome protected fragments (translatome). The raw sequencing counts were analyzed using DESeq analysis to determine differential expression or differential ribosome occupancy between DMSO and Compound 107 treatment and are reported as the loge fold change. Quantitation of the ribosome protected fragments (RPF) directly reflects the extent that a given transcript is bound by ribosomes and is a measure of the drug effects on translational rate.
Loge fold change in TE values are calculated from the difference in loge fold change in translational rate (RPF) between drug treated and control, and the loge fold change in total mRNA (drug treated vs. control). Evaluation of TE results in normalizing translation changes to transcript abundance. The statistical significance for TE values was determined using Babel software which was developed for assessing the significance of changes in translational regulation between conditions.

TMD8 cells [2] = assay: Proliferation of TMD8 cells; assay type: cell-based; conditions: Homo sapiens
TMD8 cells [3] = assay: Cytokine/chemokine protein expression in TMD8 cells; assay type: cell-based, human
Cyclin D3 = assay: Immunoblotting of cyclin D3 protein in TMD8 cells; assay type: cell-based, human; conditions: increasing concentrations, 48 hours
Procedure: as §1, §2
(§3) Cells were spun down and washed with PBS and lysed in 1× RIPA buffer (Thermo Fisher) for 15 min at 4° C. Lysates were sonicated briefly and clarified by centrifugation for 15 min at 14,000 rpm and supernatants were collected. Protein concentration in the soluble fraction was determined by BCA protein assay (Thermo Scientific). 20 μg of protein were resolved on 4-20% Bis-Tris gradient gel (Invitrogen) and transferred to nitrocellulose membrane. The resulting blots were blocked for 1 hr at room temperature with Odyssey blocking solution (LI-COR) and then incubated with anti-phospho-eIF4E (Millipore), anti-eIF4E (Santa Cruz), anti-CCND3 (Cell Signaling) or anti-IRF7 (Cell Signaling) at 4° C. overnight. I3-actin was used as a loading control. […] The blots were then washed and scanned, specific proteins were detected by using the LI-COR Odyssey infrared imager. • (d) Non-Radioactive Nascent Protein Synthesis Assay

IRF7 = assay: Immunoblotting of IRF7 protein in TMD8 cells; assay type: cell-based, human; conditions: 48 hours, FIG. 6
Procedure: as §1, §2, §3

LAG-3 = LAG-3 protein expression in TMD8 cells; assay type: cell-based, human; conditions: data not shown
activated T cells = assay: Cell surface PD-1 and LAG-3 on CD3/CD28 activated T cells; assay type: cell-based
[4] = tested on: eIF4E phosphorylation (p-eIF4E); assay: Immunoblotting of eIF4E phosphorylation in TMD8 cells; assay type: cell-based, human
Procedure: as §1, §2, §3

eIF4F complex = assay: eIF4G bound to eIF4E (eIF4F complex) in TMD8 cells; assay type: cell-based, human; conditions: increased concentrations
TMD8 cells [5] = assay: Non-radioactive nascent protein synthesis assay (AHA incorporation); assay type: cell-based, human
Procedure: as §1, §2
Newly synthesized proteins were detected by using the CLICK-IT Biotin Protein Analysis Detection Kit (Life Technologies; C33372) according to the manufacturer's protocol. Briefly, cells were rinsed with PBS once and incubated in methionine-free media for 30 min in the presence of the compound before being pulsed with the nonradioactive azide-containing methionine analogue AHA for 2 hrs. Cell lysates were then collected for the labeling reactions. The newly synthesized, AHA-incorporated protein was crosslinked to alkyne-derivatized biotin by a copper (I)—catalyzed cycloaddition (CLICK-IT) according to the manufacturer's instructions (Life Technologies). Following the labeling reactions, proteins were precipitated and quantified and subsequently subjected to immunoblotting analysis. Anti-streptavidin-HRP was used to detect newly synthesized proteins that contained biotin-conjugated AHA. Amount of newly synthesized proteins can be quantified by densitometry. • (e) Polysome Profiling

TMD8 cells [6] = assay: Cell survival of TMD8 cells; assay type: cell-based, human; conditions: increasing concentrations, data not shown
[7] = tested on: CD3/CD28 activated T cells; assay: Cytokines/chemokines in CD3/CD28 activated T cells; assay type: cell-based
TMD8 cells [8] = assay: Polysome profiling; assay type: cell-based, human; conditions: 0.3 or 10 μM, 3 or 48 hours
Procedure: TMD8 human diffuse large B-cell lymphoma line was cultured in RPMI media supplemented with penicillin G (100 U/ml), streptomycin (100 μg/ml), 10% FBS in a humidified atmosphere of 5% CO2 maintained at 37° C. • (b) Drug Treatment TMD8 cells were seeded prior to drug treatment. The following day, cells were treated with either DMSO (vehicle control) or MNK inhibitor (Compound 107) at the appropriate dose and time. • (c) Immunoblotting Cells were washed with cold PBS supplemented with cycloheximide and lysed with 1× mammalian cell lysis buffer for 10 minutes on ice. Lysates were clarified by centrifugation for 10 minutes at 14,000 rpm and supernatants were collected. The clarified lysate was loaded onto a 10-50% sucrose gradient containing 0.1 mg/ml cycloheximide (gradients were prepared using a BioComp Gradient Station) and centrifuged at 40,000 rpm for 2 hours at 4° C. using a SW40Ti rotor in a BECKMAN COULTER Optima L8-[…] ultra centrifuge. Polysome fractions were isolated using the BioComp Gradient Station. • (f) Ribosome Profiling

[9] = 3 hour, Translational Efficiency
[10] = 3 hour, Translational Rate (RPF)
[11] = 48 hour, Translational Efficiency
[12] = 48 hour, Translational Rate (RPF)

## Cc1cc(Nc2cc(N)ncn2)c(=O)n2c1C(=O)NC21CCCCC1.Cl [Compound 107]
TMD8 cells [1]; [9]
  # Genes Down Regulated: 24
  # Genes Up Regulated: 27
TMD8 cells [1]; [10]
  # Genes Down Regulated: 58
  # Genes Up Regulated: 64
TMD8 cells [1]; [11]
  # Genes Down Regulated: 31
  # Genes Up Regulated: 15
TMD8 cells [1]; [12]
  # Genes Down Regulated: 123
  # Genes Up Regulated: 92
TMD8 cells [1]; 48 hours, log2≤−0.75, p-value <0.01
  number of the 123 MNK-sensitive genes also down regulated at the mRNA expression level: 51
TMD8 cells [1]; 48 hours, log2≤−0.75, p-value <0.05
  number of genes selectively down regulated at the translational level in the absence of substantial transcript changes: 27
TMD8 cells [1]; TMD8 cells, 3 hours, FIG. 7
  translational efficiency of 3 hour gene set at 300 nM compared with 10 μM: equal or lesser extent
TMD8 cells [1]; TMD8 cells, p-value=0.033, below significance cutoff
  PD-1 translationally down regulated: ~2 fold
TMD8 cells [2]
  EC50: 3300 nM
TMD8 cells [3]; DLBCL cell line TMD8
  cytokines evaluated (TNFα, IL6, IL10): modulation of one or more of the cytokines evaluated
TMD8 cells [3]; data not shown
  cytokine/chemokine biomarkers (CXCL10, IL6 and IL10) at the protein expression level: down regulated
Cyclin D3
  cyclin D3 protein level: reduction in cyclin D3
IRF7
  IRF7 at the protein level: decreased
LAG-3
  expression of LAG-3 at the protein level: selective decrease
Activated T cells; CD3/CD28 activated T cells
  cell surface levels of the immune checkpoint inhibitors PD-1 and LAG-3: reduction
Activated T cells; data not shown
  levels of PD-1 on the surface of activated T cells: reduced
[4]; Homo sapiens, TMD8 cell line, study report ECB-003, read-out: EC50 for inhibition of p-eIF4E
  EC50: 9.7 nM
[4]; TMD8 cells, 0.3-10 μM, 3 or 48 hours
  inhibition of eIF4E phosphorylation (western blot): essentially complete inhibition
eIF4F complex
  eIF4G bound to eIF4E: decrease
TMD8 cells [5]; 10 μM for 48 hours
  global protein synthesis rates: modest reduction
TMD8 cells [5]; 0.3 or 10 μM for 3 hours and 0.3 μM for 48 hours
  global protein synthesis: no impact
TMD8 cells [5]; 3 hour treatment duration
  global protein synthesis: negligible effects
TMD8 cells [6]
  cell survival: promoted cell survival
[7]
  select cytokines/chemokines (TNFα, IL10, CXCL10): reduction
TMD8 cells [8]
  polysome to monosome distribution: not observed to alter
